In patent publication US20250197407A1 (Jazz Pharmaceuticals Ireland Limited, priority 2022, published 2025):

These compounds were tested against SOS1/KRAS WT (Homo sapiens (Human), UniProt Q07889) (assay: SOS1/KRAS WT HTRF binding assay (FRET-based protein-protein interaction)). Details: inhibition of His6-SOS1 (aa564-1049, 40 nM) binding to GST-KRAS-WT (aa1-188, 40 nM); at least two independent replicates; read-out: SOS1/KRAS WT HTRF Binding assay pIC50 (converted).
Sequence of SOS1/KRAS WT (Q07889 564-1049): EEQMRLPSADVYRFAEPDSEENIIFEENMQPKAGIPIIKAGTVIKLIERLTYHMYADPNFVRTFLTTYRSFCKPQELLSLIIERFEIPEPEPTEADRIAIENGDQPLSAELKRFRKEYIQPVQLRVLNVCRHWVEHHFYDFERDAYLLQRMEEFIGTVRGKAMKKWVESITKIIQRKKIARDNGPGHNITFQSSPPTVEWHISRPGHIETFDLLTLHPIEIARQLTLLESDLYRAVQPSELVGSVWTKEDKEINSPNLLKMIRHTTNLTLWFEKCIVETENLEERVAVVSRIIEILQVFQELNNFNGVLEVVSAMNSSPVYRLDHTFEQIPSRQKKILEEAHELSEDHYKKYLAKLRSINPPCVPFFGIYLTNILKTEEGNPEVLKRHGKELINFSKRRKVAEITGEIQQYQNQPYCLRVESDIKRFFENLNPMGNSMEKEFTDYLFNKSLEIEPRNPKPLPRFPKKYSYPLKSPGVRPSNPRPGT
Source text: The capacity of compounds to inhibit SOS1 binding to KRAS-WT (wild-type) was quantified using a FRET-based protein-protein interaction assay. The assay is based on the transfer of energy between two fluorophores, a donor and an acceptor, when in close proximity. In this instance, the donor is a Europium-conjugated α-GST antibody that binds to GST-tagged KRAS-WT, and the acceptor is an XL665-conjugated α-His 6 antibody that binds to His 6-tagged SOS1. Binding of SOS1 to KRAS-WT results in an increased fluorescent signal at emission wavelength of 665 nm which can be detected on the EnVision plate reader. Compounds that inhibit binding will reduce the 665 nm signal emitted. Recombinant KRAS-WT protein (40 nM; Human KRAS, aa1-188 recombinant protein with N-terminal GST-tag) and SOS1 protein (40 nM; Human SOS1 exchange domain, aa564-1049 with N-terminal 6His-tag) were mixed together in assay buffer (5 mM HEPES pH7.3, 150 mM NaCl, 10 mM EDTA, 5 mM MgCl2, 0.05% BSA, 0.0025% NP-40, 1 mM DTT and 100 mM KF) and incubated at room temperature with a dose response of compound in a 384-well low volume white plate and a final volume of 5 ul. After a 60 minute incubation, 5 ul of 4 nM anti-GST-Eu(K) (Cisbio, France) combined with 20 nM anti-6His-XL665 (Cisbio, France), diluted in assay buffer, was added to the plate. Following a further 4 hr incubation at room temperature, time-resolved fluorescence was measured on the EnVision plate reader. DMSO (0.05%) and 10 μM reference compound were used to generate the Max and Min assay signals, respectively. Data was analysed using a four-parameter logistic model to calculate IC50 values, with at least two independent replicates performed for each compound.
Data was analyzed using a four-parameter logistic model to calculate IC50 values, with at least two independent replicates performed for each compound.
Cc1c([C@@H](C)Nc2nnc(C)c3cc4c(cc23)N(C)C(=O)C42CCCC2)cccc1C(F)(F)C(C)(C)O [Compound 186, 1′,5′-dimethyl-8′-[[(1R)-1-[3-(1,1-difluoro-2-hydroxy-2-methyl-propyl)-2-methyl-phenyl]ethyl]amino]spiro [cyclopentane-1,3′-pyrrolo[2,3-g]phthalazine]-2′-one] showed an IC50 of 8.32 nM.
Work on Cc1nnc(N[C@H](C)c2cc(F)cc(C(F)(F)CO)c2)c2cc3c(cc12)n(C)c(=O)n3C [Compound 51, 5-[[(1R)-1-[3-(1,1-difluoro-2-hydroxy-ethyl)-5-fluoro-phenyl]ethyl]amino]-1,3,8-trimethyl-imidazo[4,5-g]phthalazin-2-one] yielded an IC50 of 23.4 nM.
Compound Cc1nnc(N[C@H](C)c2cccc(C(F)F)c2F)c2cc3c(cc12)OC(C)(C)C(=O)N3C [Compound 30, 2,2,4,9-tetramethyl-6-[[(1R)-1-[3-(difluoromethyl)-2-fluoro-phenyl]ethyl]amino]pyridazino[4,5-g][1,4]benzoxazin-3-one] has an IC50 of 14.8 nM.
Cc1nnc(N[C@H](C)c2cccc(C(F)F)c2F)c2cc3c(cc12)C(C)(C)C(=O)N3C1CC1 [Compound 62, 1-cyclopropyl-3,3,5-trimethyl-8-[[(1R)-1-[3-(difluoromethyl)-2-fluoro-phenyl]ethyl]amino]pyrrolo[2,3-g]phthalazin-2-one] gave an IC50 of 10.7 nM.
Cc1nnc(N[C@H](C)c2cccc(C(F)(F)CO)c2F)c2cc3c(cc12)N(C)C(=O)C31CCOCC1 [Compound 116, 1,8-dimethyl-5-[[(1R)-1-[3-(1,1-difluoro-2-hydroxy-ethyl)-2-fluoro-phenyl]ethyl]amino]spiro[pyrrolo [3,2-g]phthalazine-3,4′-tetrahydropyran]-2-one] gave an IC50 of 6.61 nM.
With Cc1nnc(N[C@H](C)c2cccc(C(F)(F)C(C)(C)O)c2)c2cc3c(cc12)n(C)c(=O)n3C1(C)CC1 [Compound 83, 1,8-dimethyl-3-(1-methylcyclopropyl)-5-[[(1R)-1-[3-(1,1-difluoro-2-hydroxy-2-methyl-propyl)phenyl]ethyl]amino]imidazo [4,5-g]phthalazin-2-one] the IC50 was 7.94 nM.
Compound COC1(C)C(=O)N(C)c2cc3c(N[C@H](C)c4cc(C)cc(C(F)(F)CO)c4C)nnc(C)c3cc21 (stereo partly drawn) [Compound 182, 3-methoxy-1,3,5-trimethyl-8-[[(1R)-1-[3-(1,1-difluoro-2-hydroxy-ethyl)-2,5-dimethyl-phenyl]ethyl]amino]pyrrolo[2,3-g]phthalazin-2-one] has an IC50 of 9.77 nM.
Cc1c(C2CC2)cccc1[C@@H](C)Nc1nnc(C)c2cc3c(cc12)n(C)c(=O)n3C [Compound 154, 1,3,8-trimethyl-5-[[(1R)-1-(3-cyclopropyl-2-methyl-phenyl)ethyl]amino]imidazo[4,5-g]phthalazin-2-one] was tested, and the IC50 was 15.8 nM.
Cc1nnc(N[C@H](C)c2cccc(C(F)(F)CO)c2F)c2cc3c(cc12)C(C)(C)C(=O)N3C [Compound 109, 1,3,3,5-tetramethyl-8-[[(1R)-1-[3-(1,1-difluoro-2-hydroxy-ethyl)-2-fluoro-phenyl]ethyl]amino]pyrrolo[2,3-g]phthalazin-2-one] gave an IC50 of 7.08 nM.
Cc1c([C@@H](C)Nc2nnc(C)c3cc4c(cc23)N(C2CC2)C(=O)C42CCOCC2)cccc1C(F)(F)CO [Compound 119, 1-cyclopropyl-5-methyl-8-[[(1R)-1-[3-(1,1-difluoro-2-hydroxy-ethyl)-2-methyl-phenyl]ethyl]amino]spiro[pyrrolo [2,3-g]phthalazine-3,4′-tetrahydropyran]-2-one] showed an IC50 of 7.41 nM.
COC1(C)C(=O)N(C)c2cc3c(N[C@H](C)c4cc(F)cc(C(F)(F)C(C)(C)O)c4)nnc(C)c3cc21 (stereo partly drawn) [Compound 175, 3-methoxy-1,3,5-trimethyl-8-[[(1R)-1-[3-(1,1-difluoro-2-hydroxy-2-methyl-propyl)-5-fluoro-phenyl]ethyl]amino]pyrrolo[2,3-g]phthalazin-2-one] was tested, and the IC50 was 14.5 nM.
COC1(C)C(=O)N(C)c2cc3c(N[C@H](C)c4cccc(C(F)(F)CO)c4C)nnc(C)c3cc21 (stereo partly drawn) [Compound 92] gave an IC50 of 9.77 nM.
Compound Cc1nnc(N[C@H](C)c2cccc(C(F)(F)CO)c2)c2cc3c(cc12)C1(CCOCC1)C(=O)N3C [Compound 88, 1,5-dimethyl-8-[[(1R)-1-[3-(1,1-difluoro-2-hydroxy-ethyl)phenyl]ethyl]amino]spiro [pyrrolo[2,3-g]phthalazine-3,4′-tetrahydropyran]-2-one] has an IC50 of 7.76 nM.
With CCOC1(C)C(=O)N(C2CC2)c2cc3c(N[C@H](C)c4cccc(C(F)(F)CO)c4)nnc(C)c3cc21 (stereo partly drawn) [Compound 162, 1-cyclopropyl-8-[[(1R)-1-[3-(1,1-difluoro-2-hydroxy-ethyl)phenyl]ethyl]amino]-3-ethoxy-3,5-dimethyl-pyrrolo[3,2-g]phthalazin-2-one] the IC50 was 9.12 nM.
For CCC1(OC)C(=O)N(C)c2cc3c(N[C@H](C)c4cccc(C(F)(F)CO)c4F)nnc(C)c3cc21 (stereo partly drawn) [Compound 207, 3-ethyl-3-methoxy-1,5-dimethyl-8-[[(1R)-1-[3-(1,1-difluoro-2-hydroxy-ethyl)-2-fluoro-phenyl]ethyl]amino]pyrrolo[2,3-g]phthalazin-2-one], the IC50 was 8.51 nM.
Compound COC1(C)C(=O)N(C2CC2)c2cc3c(N[C@H](C)c4cccc(C(F)(F)CO)c4F)nnc(C)c3cc21 (stereo partly drawn) [Compound 122, 1-cyclopropyl-3-methoxy-3,5-dimethyl-8-[[(1R)-1-[3-(1,1-difluoro-2-hydroxy-ethyl)-2-fluoro-phenyl]ethyl]amino]pyrrolo[2,3-g]phthalazin-2-one] has an IC50 of 5.75 nM.
Cc1c(C2CCNC2)cccc1[C@@H](C)Nc1nnc(C)c2cc3c(cc12)n(C)c(=O)n3C (stereo partly drawn) [Compound 161, 1,3,8-trimethyl-5-[[(1R)-1-(2-methyl-3-pyrrolidin-3-yl-phenyl)ethyl]amino]imidazo[4,5-g]phthalazin-2-one] showed an IC50 of 589 nM.
COCC1(C)C(=O)N(C2CC2)c2cc3c(N[C@H](C)c4cccc(C(F)(F)C(C)(C)O)c4F)nnc(C)c3cc21 (stereo partly drawn) [Compound 136, 1-cyclopropyl-8-[[(1R)-1-[3-(1,1-difluoro-2-hydroxy-2-methyl-propyl)-2-fluoro-phenyl]ethyl]amino]-3-(methoxymethyl)-3,5-dimethyl-pyrrolo[3,2-g]phthalazin-2-one] showed an IC50 of 14.1 nM.
Cc1nnc(N[C@H](C)c2cccc(C(F)(F)C(C)(C)O)c2)c2cc3c(cc12)N(C)C(=O)C31CCOCC1 [Compound 125, 1,8-dimethyl-5-[[(1R)-1-[3-(1,1-difluoro-2-hydroxy-2-methyl-propyl)phenyl]ethyl]amino]spiro [pyrrolo[3,2-g]phthalazine-3,4′-tetrahydropyran]-2-one] was tested, and the IC50 was 6.61 nM.
Cc1nnc(N[C@H](C)c2cccc(C(F)(F)CO)c2F)c2cc3c(cc12)C(C)(C)C(=O)N3C1CC1 [Compound 123, 1-cyclopropyl-3,3,5-trimethyl-8-[[(1R)-1-[3-(1,1-difluoro-2-hydroxy-ethyl)-2-fluoro-phenyl]ethyl]amino]pyrrolo[2,3-g]phthalazin-2-one] gave an IC50 of 8.71 nM.
Cc1nnc(N[C@H](C)c2cccc(C(F)(F)C(C)(C)O)c2F)c2cc3c(cc12)C(C)(C)C(=O)N3C(C)C [Compound 111, 1-isopropyl-3,3,5-trimethyl-8-[[(1R)-1-[3-(1,1-difluoro-2-hydroxy-2-methyl-propyl)-2-fluoro-phenyl]ethyl]amino]pyrrolo[2,3-g]phthalazin-2-one] gave an IC50 of 7.41 nM.
